Test results from patent publication US20230113037A1 (Bayer Aktiengesellschaft, priority 2019, published 2023).
Where two headings read alike, the source gives them in different places.

Experiments:
[1] = target: T1, AHR (Mus musculus, UniProt P30561); test: In vitro assay 3: antagonism in mouse cell line (AHR transactivation, firefly luciferase reporter, kynurenic acid prestimulated); type: cell-based
T1 sequence (P30561 1-848 P471L/N533S/M589L): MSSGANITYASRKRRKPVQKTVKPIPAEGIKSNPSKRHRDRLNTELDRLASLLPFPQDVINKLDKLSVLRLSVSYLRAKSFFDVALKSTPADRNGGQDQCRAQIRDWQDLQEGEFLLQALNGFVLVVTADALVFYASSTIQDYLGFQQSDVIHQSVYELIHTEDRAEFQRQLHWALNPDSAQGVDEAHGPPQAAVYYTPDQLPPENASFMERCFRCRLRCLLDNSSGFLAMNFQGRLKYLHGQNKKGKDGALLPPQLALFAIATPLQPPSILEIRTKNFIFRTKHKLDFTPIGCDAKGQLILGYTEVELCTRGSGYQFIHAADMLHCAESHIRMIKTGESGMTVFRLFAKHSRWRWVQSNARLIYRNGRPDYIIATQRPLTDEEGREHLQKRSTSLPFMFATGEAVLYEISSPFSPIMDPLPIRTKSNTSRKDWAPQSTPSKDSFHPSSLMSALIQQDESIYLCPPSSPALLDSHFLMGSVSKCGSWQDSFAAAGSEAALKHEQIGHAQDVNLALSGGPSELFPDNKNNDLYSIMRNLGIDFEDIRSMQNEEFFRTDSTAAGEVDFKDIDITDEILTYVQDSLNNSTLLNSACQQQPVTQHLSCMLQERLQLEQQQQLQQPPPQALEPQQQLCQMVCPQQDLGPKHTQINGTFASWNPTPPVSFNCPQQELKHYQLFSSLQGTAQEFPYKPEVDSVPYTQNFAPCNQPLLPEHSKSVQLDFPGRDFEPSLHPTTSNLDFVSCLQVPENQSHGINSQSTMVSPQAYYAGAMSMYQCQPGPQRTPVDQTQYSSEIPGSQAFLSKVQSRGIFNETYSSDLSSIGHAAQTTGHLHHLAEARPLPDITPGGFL
In short: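 Mouse cells stably carrying a DRE-driven AHR-inducible firefly luciferase reporter were prestimulated with the endogenous agonist kynurenic acid before compound addition. Luciferase read by SteadyGlo; cells without kynurenic acid served as full-inhibition control, with normalization to positive and negative controls. Repeat tests reported as mean or median.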

[2] = target: T2, AHR (Homo sapiens, UniProt P35869); test: In vitro assay 1: antagonism in human cell line (AHR transactivation, firefly luciferase reporter, kynurenic acid prestimulated); type: cell-based; settings: AHR Antagonism Human IC50 [M]
T2 construct: U87 MG glioblastoma cells (ATCC #HTB-14) endogenously expressing AHR; endogenous in cells; host or cells: U87 MG glioblastoma cells (ATCC #HTB-14)
T2 sequence (P35869 11-848): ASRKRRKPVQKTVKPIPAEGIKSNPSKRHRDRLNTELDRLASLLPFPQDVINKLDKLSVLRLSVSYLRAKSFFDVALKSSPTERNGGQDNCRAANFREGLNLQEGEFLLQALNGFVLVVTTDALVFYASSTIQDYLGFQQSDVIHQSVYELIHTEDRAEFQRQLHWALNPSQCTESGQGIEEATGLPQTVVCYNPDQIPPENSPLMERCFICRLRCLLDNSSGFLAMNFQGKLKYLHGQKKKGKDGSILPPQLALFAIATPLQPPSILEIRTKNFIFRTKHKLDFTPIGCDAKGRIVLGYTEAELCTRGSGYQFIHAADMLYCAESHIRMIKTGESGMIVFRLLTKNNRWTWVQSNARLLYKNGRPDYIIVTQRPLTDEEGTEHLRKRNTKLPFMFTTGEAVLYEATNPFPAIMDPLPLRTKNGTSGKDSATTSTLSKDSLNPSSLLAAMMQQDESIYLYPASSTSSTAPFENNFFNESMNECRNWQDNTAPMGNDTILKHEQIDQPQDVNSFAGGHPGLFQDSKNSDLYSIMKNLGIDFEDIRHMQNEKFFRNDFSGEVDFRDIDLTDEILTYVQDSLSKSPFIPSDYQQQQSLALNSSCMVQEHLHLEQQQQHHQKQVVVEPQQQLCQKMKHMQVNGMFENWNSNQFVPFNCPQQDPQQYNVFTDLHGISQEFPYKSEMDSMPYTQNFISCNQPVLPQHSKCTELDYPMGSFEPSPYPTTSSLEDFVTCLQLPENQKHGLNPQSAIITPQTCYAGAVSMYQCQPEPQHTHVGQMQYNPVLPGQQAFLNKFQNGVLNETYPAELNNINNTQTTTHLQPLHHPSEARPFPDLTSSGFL
In short: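 U87 MG + DRE-firefly/constitutive-Renilla stable reporters; kynurenic acid prestim; dual-luc read; Renilla = tox; normalized vs pos/neg controls (pos: 150 μM KYNA + 5 μM staurosporine).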

[3] = Hepa 1c1c7 cells, 200 μM kynurenic acid, 20 hours, firefly luciferase reporter, read-out: AHR Antagonism Mouse IC50
[4] = mouse Hepa 1c1c7 cells, 200 μM kynurenic acid, 20 hours, read-out: AHR Antagonism Mouse IC50
[5] = read-out: AHR Antagonism Mouse IC50, mouse Hepa 1c1c7 cells, 200 μM kynurenic acid, 20 hours

IC50 ([2]; firefly luciferase reporter)	IC50 [1, 4]	IC50 [2]	Compound	also measured
	0.927 nM	3.61e-10 M	COc1ccc(-c2nc3c4cccc(C(F)(F)F)c4nc(N[C@@H]4CNCCNC4=O)n3n2)cc1 [Example 422, (6R)-6-{[2-(4-methoxyphenyl)-7-(trifluoromethyl)[1,2,4]triazolo[1,5-c]quinazolin-5-yl]amino}-1,4-diazepan-5-one]	
6.2e-10 M			CCn1cc(-c2nc3c4cccc(Cl)c4nc(N[C@@H]4CCCCNC4=O)n3n2)cn1 [Example 818, (3R)-3-{[7-chloro-2-(1-ethyl-1H-pyrazol-4-yl)[1,2,4]triazolo[1,5-c]quinazolin-5-yl]amino}azepan-2-one]	IC50 [1, 3]: 2.18 nM
5.18e-07 M			CNCCNC(=O)[C@@H](C)Nc1nc2c(Br)cccc2c2nc(-c3cnn(C)c3)nn12 [Example 989, N^2-[7-bromo-2-(1-methyl-1H-pyrazol-4-yl)[1,2,4]triazolo[1,5-c]quinazolin-5-yl]-N-[2-(methylamino)ethyl]-D-alaninamide]	IC50 [1, 3]: 399 nM
	3.35 nM	3.98e-09 M	O=C1NCCCC[C@H]1Nc1nc2ccccc2c2nc(-c3ccccc3Br)nn12 [Example 452, (3R)-3-{[2-(2-bromophenyl)[1,2,4]triazolo[1,5-c]quinazolin-5-yl]amino}azepan-2-one]	
	4500 nM	1.62e-06 M	CS(=N)(=O)c1cccc(-c2nc3c4ccccc4nc(N[C@@H]4CCCCNC4=O)n3n2)c1 (single isomer, unassigned) [Example 659]	
> 2e-05 M			Cn1cc(-c2nc3c4cccc(S(C)(=O)=O)c4nc(N[C@@H]4CNCCNC4=O)n3n2)cn1 [Example 937, (6R)-6-{[7-(methanesulfonyl)-2-(1-methyl-1H-pyrazol-4-yl)[1,2,4]triazolo[1,5-c]quinazolin-5-yl]amino}-1,4-diazepan-5-one]	IC50 [1, 3]: > 20000 nM

Further lines, the compound ahead of its results:

Compound	IC50 ([2]; firefly luciferase reporter)	IC50 [1, 4]	IC50 [2]	also measured
CC[C@@H](Nc1nc2ccccc2c2nc(-c3cn(C)nn3)nn12)C(N)=O [Example 793, (2R)-2-{[2-(1-methyl-1H-1,2,3-triazol-4-yl)[1,2,4]triazolo[1,5-c]quinazolin-5-yl]amino}butanamide]	2.94e-06 M			IC50 ([1]; read-out: AHR Antagonism Mouse IC50, Hepa 1c1c7 cells, 200 μM kynurenic acid, 20 hours, firefly luciferase reporter): 694 nM
CCn1cc(-c2nc3c4cccc(C(F)(F)F)c4nc(N[C@H]4CNCCNC4=O)n3n2)c(C)n1 [Example 949, (6S)-6-{[2-(1-ethyl-3-methyl-1H-pyrazol-4-yl)-7-(trifluoromethyl)[1,2,4]triazolo[1,5-c]quinazolin-5-yl]amino}-1,4-diazepan-5-one]	4.4e-09 M			IC50 [1, 3]: 14.7 nM
COc1ccc(-c2nc3c4ccccc4nc(N[C@H](C)C(=O)NCCN4CCOCC4)n3n2)cc1 [Example 779, N^2-[2-(4-methoxyphenyl)[1,2,4]triazolo[1,5-c]quinazolin-5-yl]-N-[2-(morpholin-4-yl)ethyl]-D-alaninamide]		5.96 nM	4.3e-09 M	
Cc1ccccc1-c1nc2c3ccccc3nc(N[C@H]3CCCCNC3=O)n2n1 [Example 41, (3S)-3-{[2-(2-methylphenyl)[1,2,4]triazolo[1,5-c]quinazolin-5-yl]amino}azepan-2-one]			2.12e-08 M	IC50 [1, 5]: 1.7 nM
COc1ccc(-c2nc3c4ccccc4nc(N[C@@H]4CNCCNC4=O)n3n2)c(C)c1 [Example 410, (6R)-6-{[2-(4-methoxy-2-methylphenyl)[1,2,4]triazolo[1,5-c]quinazolin-5-yl]amino}-1,4-diazepan-5-one]		4.73 nM	1.53e-08 M	
O=C1NCCCC[C@H]1Nc1nc2c(F)cccc2c2nc(-c3cccc(F)c3)nn12 [Example 137, (3R)-3-{[7-fluoro-2-(3-fluorophenyl)[1,2,4]triazolo[1,5-c]quinazolin-5-yl]amino}azepan-2-one]			2.16e-09 M	IC50 [1, 5]: 0.823 nM
COc1ccc(-c2nc3c4cc(OC)ccc4nc(N[C@@H]4CNCCNC4=O)n3n2)cc1 [Example 279, (6R)-6-{[9-methoxy-2-(4-methoxyphenyl)[1,2,4]triazolo[1,5-c]quinazolin-5-yl]amino}-1,4-diazepan-5-one]		180 nM	3.08e-07 M	
COc1cccc(-c2nc3c4c(F)cccc4nc(N[C@@H]4CCCCNC4=O)n3n2)c1 [Example 185]		9.84 nM	1.05e-08 M	
